These results are taken from the NIST ThermoML archive (doi:10.1016/j.fluid.2016.02.004).

The series in a line: activity coefficient (dimensionless); of the first substance listed, at infinite dilution; xn = mol fraction of the nth substance listed. The settings on record: Liquid, Chromatography, x1 = 0.

Structures are written as SMILES. Numbers after ± are expanded uncertainties.

Consider `CCCc1ccccc1` [propylbenzene] + CCCCn1cc[n+](C)c1.N#CN=C=[N-], for which the activity coefficient is, setting by setting: (318.15 K) 7.36 ± 0.5; (328.15 K) 7.57 ± 0.52; (338.15 K) 7.78 ± 0.53; (348.15 K) 7.98 ± 0.54; (358.15 K) 8.15 ± 0.56; (368.15 K) 8.35 ± 0.57.

As for `c1ccncc1` [pyridine] + CCCCn1cc[n+](C)c1.N#CN=C=[N-], the activity coefficient is, setting by setting: (318.15 K) 0.845 ± 0.054; (328.15 K) 0.89 ± 0.06; (338.15 K) 0.94 ± 0.059; (348.15 K) 0.985 ± 0.062; (358.15 K) 1.03 ± 0.06; (368.15 K) 1.08 ± 0.07.

Regarding `C=Cc1ccccc1` [styrene] + CCCCn1cc[n+](C)c1.N#CN=C=[N-], the activity coefficient by setting is: (318.15 K) 2.15 ± 0.15; (328.15 K) 2.28 ± 0.16; (338.15 K) 2.41 ± 0.16; (348.15 K) 2.53 ± 0.17; (358.15 K) 2.65 ± 0.18; (368.15 K) 2.78 ± 0.19.

In the case of `C1CCOC1` [tetrahydrofuran] + CCCCn1cc[n+](C)c1.N#CN=C=[N-], the activity coefficient came out at 1.55 ± 0.1 (318.15 K); 1.63 ± 0.11 (328.15 K); 1.71 ± 0.11 (338.15 K); 1.78 ± 0.12 (348.15 K); 1.85 ± 0.12 (358.15 K); 1.93 ± 0.13 (368.15 K).

With `c1ccsc1` [thiophene] + CCCCn1cc[n+](C)c1.N#CN=C=[N-], the activity coefficient came to 1.14 ± 0.07 (318.15 K); 1.22 ± 0.08 (328.15 K); 1.29 ± 0.08 (338.15 K); 1.36 ± 0.09 (348.15 K); 1.43 ± 0.09 (358.15 K); 1.5 ± 0.1 (368.15 K).

On to `Cc1ccccc1` [toluene] + CCCCn1cc[n+](C)c1.N#CN=C=[N-], for which the activity coefficient runs as follows: (318.15 K) 2.89 ± 0.2; (328.15 K) 3.01 ± 0.2; (338.15 K) 3.15 ± 0.21; (348.15 K) 3.27 ± 0.22; (358.15 K) 3.4 ± 0.2; (368.15 K) 3.54 ± 0.24.

For the compound `O` [water] + CCCCn1cc[n+](C)c1.N#CN=C=[N-], the activity coefficient worked out at 0.31 ± 0.03 (318.15 K); 0.323 ± 0.032 (328.15 K); 0.336 ± 0.032 (338.15 K); 0.349 ± 0.032 (348.15 K); 0.363 ± 0.033 (358.15 K); 0.376 ± 0.033 (368.15 K).
